Source: patent US9629921B2, “Smart pro-drugs of serine protease inhibitors” (Trustees of Tufts College, priority 2002, dated 2017)
Where “and” joins values, the source holds several entries; their conditions need not be identical. Identical values can stand only once. Like-named read-outs stand apart in the source and are kept apart here.

What was measured:
DPP IV = DPP IV (Homo sapiens, UniProt P27487); assay: In vitro DPP IV enzyme inhibition assay; inhibitors incubated at pH 2 or pH 8, then added to enzyme assay solution at pH 8.0; assay type: biochemical
Chain of DPP IV (P27487 whole entry, species assumed): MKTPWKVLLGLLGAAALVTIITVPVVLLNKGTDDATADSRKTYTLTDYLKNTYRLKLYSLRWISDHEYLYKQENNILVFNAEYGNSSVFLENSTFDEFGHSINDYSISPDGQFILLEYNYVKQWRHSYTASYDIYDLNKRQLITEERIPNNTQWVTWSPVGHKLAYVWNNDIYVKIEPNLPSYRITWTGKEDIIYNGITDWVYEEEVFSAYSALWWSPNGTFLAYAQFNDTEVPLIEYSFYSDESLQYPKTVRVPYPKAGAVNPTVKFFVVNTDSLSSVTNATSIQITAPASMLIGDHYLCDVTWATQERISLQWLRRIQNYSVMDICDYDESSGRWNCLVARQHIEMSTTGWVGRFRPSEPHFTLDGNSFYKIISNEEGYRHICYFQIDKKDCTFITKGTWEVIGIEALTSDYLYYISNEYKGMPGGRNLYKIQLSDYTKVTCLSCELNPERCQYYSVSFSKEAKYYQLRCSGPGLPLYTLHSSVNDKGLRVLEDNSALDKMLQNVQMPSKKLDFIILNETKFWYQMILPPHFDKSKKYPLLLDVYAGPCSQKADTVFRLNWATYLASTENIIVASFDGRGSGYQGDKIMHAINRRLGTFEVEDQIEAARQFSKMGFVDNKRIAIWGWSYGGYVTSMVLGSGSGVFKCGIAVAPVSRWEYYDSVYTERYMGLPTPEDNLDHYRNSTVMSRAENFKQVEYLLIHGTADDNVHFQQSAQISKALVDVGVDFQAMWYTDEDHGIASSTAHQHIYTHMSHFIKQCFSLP
Procedure: Inhibitors were incubated overnight in pH 2 or pH 8 solutions and then added directly to an enzyme assay solution at pH 8.0.
It is important to note that the x-axis in FIG. 3 refers to the concentration of the SPI, not the concentration of the released Xaa-boroPro.

male Sprague-Dawley rats = assay: Example 10: clinical signs and mortality after single oral administration in male rats; conditions: for Clinical Observation: one line per animal, wrapped cell 'Redness of ears' continues 'and paws';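 for all read-outs here: test articles given by mouth, formulated in deionized Type I water as vehicle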
[1] = pH 2, ten minutes, read-out: IC50 Values at Ten Minutes pH 2
[2] = pH 8, ten minutes, read-out: IC50 Values at Ten Minutes pH 8
[3] = 2.5 mg/kg ALA-PRO boronic dose equivalents
[4] = 10.0 mg/kg ALA-PRO boronic dose equivalents

Compound | IC50 (DPP IV; [1]) [nM] | IC50 (DPP IV; [2]) [nM] | further results
O=C(C1CCCN1)N1CCCC1B(O)O (stereo not shown) [Pro-boroPro, reference compound] |  |  | pH dependence of DPP IV inhibition (DPP IV; pre-incubated at low pH vs high pH (FIG. 3, FIG. 64, Table 1)): more effective as inhibitors of DPP IV when pre-incubated at low pH than at high pH
CCC(NC(=O)C(C)NC(=O)C(N)C1CCCCC1)C(=O)NC(C)B(O)O (stereo not shown) [ChgAlaEtgboroAla] | 1300 | 2500 | 
CC(C)(C)[C@H](NC(=O)[C@@H]1CCCN1C(=O)[C@@H](N)C1CCCCC1)C(=O)N1CCC[C@H]1B(O)O [ChgProBugboroPro] | 1500 | 8000 | 
CC(N)C(=O)NC(C)C(=O)NC(C(=O)N1CCCC1B(O)O)C(C)C (stereo not shown) [AlaAlaValboroPro] | 2000 | 25000 | 
CC(NC(=O)C(NC(=O)C1CCCN1C(=O)C(N)C1CCCCC1)C(C)(C)C)B(O)O (stereo not shown) [ChgProtBugboroAla] | 6800 | 8400 | 
CC(NC(=O)C(N)C1CCCCC1)C(=O)N1CCCC1C(=O)N1CCCC1B(O)O (stereo not shown) [ChgAlaProboroPro] | 2000 | 30000 | 
CCC(NC(=O)C(C)NC(=O)C(N)C1CCCCC1)C(=O)N1CCCC1B(O)O (stereo not shown) [ChgAlaEtgboroPro] | 600 | 802 | 
ChgPipEtgboroPro | 19 | 14 | 
CCC(NC(=O)C1CCCN1C(=O)C(N)C1CCCCC1)C(=O)N1CCCC1B(O)O (stereo not shown) [ChgProEtgboroPro] | 12 | 14 | 
CC(C)C(NC(=O)C1CCCN1C(=O)CN)C(=O)N1CCCC1B(O)O (stereo not shown) [GlyProValboroPro] | 17 | 46 | IC50 (DPP IV; pH 2, read-out: Tetrapeptide Prodrugs (IC50) pH 2): 17 nM; IC50 (DPP IV; pH 8, read-out: Tetrapeptide Prodrugs (IC50) pH 8): 46 nM
CC(N)C(=O)NC(C)C(=O)N1CCCC1C(=O)N1CCCC1B(O)O (stereo not shown) [AlaAlaProboroPro] | 3000 |  | 
CC(N)C(=O)N1CCCC1C(=O)N1CCCC1C(=O)N1CCCC1B(O)O (stereo not shown) [AlaProProboroPro] | 8300 |  | 
ChgDhpEtgboroPro | 15 | 17 | 
NC(C(=O)N1CCCC1C(=O)NC(C(=O)N1CCCC1B(O)O)C1CCCCC1)C1CCCCC1 (stereo not shown) [ChgProChgboroPro] | 14 | 14 | 
CNC(Cc1ccccc1)C(=O)N1CCCC1C(=O)NC(C)C(=O)N1CCCC1B(O)O (stereo not shown) [N—Me-PheProAlaboroPro, N-Me-Phe-PRO-ALA-PRO Boronic Acid] | 2000 | 2700 | Clinical Observation (male Sprague-Dawley rats; 0.5 mg/kg ALA-PRO boronic dose equivalents): None; Approximate Onset of Observation (Time post-dose) (male Sprague-Dawley rats; [3]): ~2 h; Clinical Observation (male Sprague-Dawley rats; [3]): Redness of ears and None (2×); Approximate Onset of Observation (Time post-dose) (male Sprague-Dawley rats; [4]): ~4 h; Clinical Observation (male Sprague-Dawley rats; [4]): None (2×) and Redness of ears
